Measured values taken from ChEMBL document CHEMBL4266060, “Structure-Property Relationship Studies of Influenza A Virus AM2-S31N Proton Channel Blockers” (ACS Med Chem Lett, 2018).
Calls of active or inactive are those of the source. The calls are words filed in the database; no cut-off is given here.

Assays:
Influenza A virus [1] = test: Inhibition of Influenza A virus AM2 expressed in xenopus laevis frog oocytes assessed as inhibition of channel current at 100 uM after 2 mins by two-electrode voltage clamp assay relative to control; assay type: cell-based
Influenza A virus [2] = assay type: functional, A/California/07/2009(H1N1), MDCK
[3] = Cytotoxicity against MDCK cells after 48 hrs by neutral red uptake assay; assay type: cell-based, Canis lupus familiaris; details: dog
[4] = Half life in mouse liver microsomes at 1 uM in presence of NADPH generating system by LC-MS/MS analysis; assay type: ADME, microsome
[5] = Intrinsic clearance in mouse liver microsomes at 1 uM in presence of NADPH generating system by LC-MS/MS analysis; assay type: ADME, microsome; details: read-out: CLH
Influenza A virus [6] = test: microbe, parasite or virus in culture; details: A/California/07/2009(H1N1), MDCK
Description: Antiviral activity against Influenza A virus (A/California/07/2009(H1N1)) infected in MDCK cells expressing ST6Gal-1 assessed as reduction in plaque formation pretreated with virus for 30 mins followed by viral infection measured after 2 to 3 days by naphthalene black dye based assay

[7] = Half life in human liver microsomes at 1 uM in presence of NADPH generating system by LC-MS/MS analysis; assay type: ADME, microsome
[8] = Permeability of the compound by PAMPA; assay type: ADME; details: read-out: permeability
Influenza A virus [9] = assay type: functional, organism-based; details: A/California/07/2009(H1N1), MDCK, 10 uM
Influenza A virus [10] = assay type: functional, A/California/07/2009(H1N1), A549
Influenza A virus [11] = assay type: functional, A/California/07/2009(H1N1), A549; remark: listed apart in the source
Influenza A virus [12] = assay type: functional, A/California/07/2009(H1N1), A549; remark: listed apart in the source
Influenza A virus [13] = assay type: functional, organism-based; details: A/California/07/2009(H1N1), MDCK, 30 nM
Influenza A virus [14] = assay type: functional, organism-based; details: A/California/07/2009(H1N1), MDCK, 30 nM; remark: listed apart in the source
Influenza A virus [15] = assay type: functional, organism-based; details: A/California/07/2009(H1N1), A549, 30 nM
[16] = Half life in mouse liver microsomes at 0.5 uM; assay type: ADME, microsome; details: for half-life at 0.5 µM: liver microsomes
[17] = Intrinsic clearance in mouse liver microsomes at 0.5 uM; assay type: ADME, microsome; details: read-out: CLH

| SMILES | inhibition (Influenza A virus [1]) [%] | Activity (Influenza A virus [2]) [%] | CC50 at 48 h [3] [µM] | half-life at 1 µM [4] [min] | CLint scaled at 1 µM [5] [mL/min/kg] | EC50 (Influenza A virus [6]) [µM] | further results |
| --- | --- | --- | --- | --- | --- | --- | --- |
| OC12CC3CC(C1)CC(NCc1cc(Br)cs1)(C3)C2 | 6.5 | 31.4 | 381 | 101 | 54.5 | 3.1 | – |
| OC12CC3CC(C1)CC(NCc1ccc(-c4ccccc4Cl)s1)(C3)C2 | 0 | 20.4 | 65.2 | – | – | 2.5 | – |
| OC12CC3CC(C1)CC(NCc1ccc(-c4ccc(F)cc4F)s1)(C3)C2 | 0 | 44.1 | – | – | – | – | – |
| OC12CC3CC(C1)CC(NCc1ccc(-c4ccccc4)s1)(C3)C2 | 0.3 | 27.9 | 80.5 | – | – | 2.1 | – |
| OC12CC3CC(C1)CC(NCc1ccc(I)s1)(C3)C2 | 3.2 | 2.5 | 317 | > 145 | < 38 | 0.9 | half-life at 1 µM [7]: > 145 min; Papp [8]: 20.4 ×10⁻⁶ cm/s; Activity (Influenza A virus [9]): Active; Activity (Influenza A virus [10]): 1.8 log10PFU/ml; Activity (Influenza A virus [11]): 2.1 log10PFU/ml; Activity (Influenza A virus [12]): 2.9 log10PFU/ml |
| OC12CC3CC(C1)CC(NCc1cnc(Br)s1)(C3)C2 | 2.7 | 102.1 | – | – | – | – | – |
| COc1ccc(-c2ccc(CNC34CC5CC(CC(O)(C5)C3)C4)s2)cc1OC | 0 | 67.5 | – | – | – | – | – |
| COc1ncc(-c2ccc(CNC34CC5CC(CC(O)(C5)C3)C4)s2)cn1 | 0 | 74 | – | – | – | – | – |
| Brc1ccc(CNC23CCC4CC(CC(C4)C2)C3)s1 | 86.5 | 0 | 43.1 | 9.1 | 604 | 0.6 | – |
| CCC(CC)O[C@@H]1C=C(C(=O)O)C[C@H](N)[C@H]1NC(C)=O [OSELTAMIVIR CARBOXYLATE] | – | – | > 20 | – | – | 0.0024 | Activity (Influenza A virus [13]): Active; Activity (Influenza A virus [14]): inactive; Activity (Influenza A virus [15]): inactive |
| Ic1ccc(CNC23CC4CC(CC(C4)C2)C3)s1 | 91 | 1.8 | 70.2 | 24.5 | 224 | 1 | – |
| Brc1ccc(CNC23CC4CC(CC(C4)C2)C3)[se]1 | 56.1 | 0 | 82.1 | 32.1 | 171 | 2.2 | – |
| OC12CC3CC(C1)CC(NCc1ccc(N4CCCCCC4)cn1)(C3)C2 | – | – | – | – | – | – | half-life at 0.5 µM [16]: 22.1 min; CLint scaled at 0.5 µM [17]: 248 mL/min/kg |
| C[Si](C)(C)c1ccc(CNC23CC4CC(CC(O)(C4)C2)C3)cc1 | – | – | – | – | – | – | t1/2 ([16]; microsomes, 0.5 µM): 4.4 min |
| OC12CC3CC(C1)CC(NCc1csc(Br)c1)(C3)C2 | 1.9 | 31.3 | 364 | – | – | 5.1 | – |
| CSc1ccccc1-c1ccc(CNC23CC4CC(CC(O)(C4)C2)C3)s1 | 0 | 47.7 | – | – | – | – | – |
| c1csc(-c2cc(CNC34CC5CC(CC(C5)C3)C4)no2)c1 | – | 0 | – | – | – | – | – |
| c1nc(N2CCCCCC2)ncc1CNC12CC3CC(CC(C3)C1)C2 | – | – | – | – | – | – | half-life at 0.5 µM [16]: 0.8 min; CLint scaled at 0.5 µM [17]: 6760 mL/min/kg |
| c1csc(-c2ccc(CNC34CC5CC(CC(C5)C3)C4)s2)c1 | 17.9 | 58.5 | 19.5 | 2.8 | 1940 | 12.2 | – |
| Brc1ccc(CNC23CC4CC(CC(C4)C2)C3)s1 | 77.2 | 3.2 | 123 | > 145 | < 38 | 2.9 | half-life at 0.5 µM [16]: > 145 min; CLint scaled at 0.5 µM [17]: < 38 mL/min/kg |
| COc1ccc(-c2ccc(CNC34CC5CC(CC(O)(C5)C3)C4)s2)cn1 | 0 | 40.5 | – | – | – | – | – |
| OC12CC3CC(C1)CC(NCc1nc(Br)cs1)(C3)C2 | 3.9 | 108 | – | – | – | – | – |
| OC12CC3CC(C1)CC(NCc1cnc(N4CCCCC4)nc1)(C3)C2 | – | – | – | – | – | – | half-life at 0.5 µM [16]: 19.4 min; CLint scaled at 0.5 µM [17]: 283 mL/min/kg |
| OC12CC3CC(C1)CC(NCc1ccc(Br)s1)(C3)C2 | 11.4 | 3.9 | 238 | > 145 | < 38 | 1.1 | half-life at 1 µM [7]: > 145 min; Papp [8]: 25.3 ×10⁻⁶ cm/s |
| COC(=O)c1ccc(-c2ccc(CNC34CC5CC(CC(O)(C5)C3)C4)s2)cc1 | 0 | 52 | – | – | – | – | – |
